This note sets out measurements from patent US20200164026A1, “Intranasal Delivery of Cell Permeant Therapeutics” (The Trustees of Columbia University in the City of New York, priority 2010, published 2020).

A short description of series [1]: Intranasal delivery of Pen1-XBIR3 to rat CNS; western blot (anti-HIS) of coronal brain slices. It counts as in vivo. Particulars: intranasal 60 μl, 1 hr after delivery. As for the experimental part: The following experiment was performed to ascertain if the Pen1-XBIR3 could also bypass the blood brain barrier via another delivery technique. […] (Dhuria, et al., J Pharm Sci 99 (4), 1654-1673 (2010); Liu, et al., J Stroke Cerebrovasc Dis 13 (1), 16-23 (2004); Liu, et al., J Neurol Sci 187 (1-2), 91-97 (2001)). This delivery method takes advantage of the olfactory pathway to bypass the blood brain barrier, however until now, proteins and compounds delivered via this method in rodent models have targeted extracellular targets, such as cell surface receptors. Since caspases, which are intracellular proteins, are targeted in this experiment, the cargo needed to be delivered intracellularly. […] Pent-XBIR3 was delivered intranasally to rats, after which brains were sliced coronally, and the presence of XBIR3 in the CNS determined by western blotting (FIG. 4A).
(§1) Intranasal Delivery of Pen1-XBIR3. While under isofluorane anesthesia and lying on their backs, Pen1-XBIR3 (36.8 μM) was delivered to rats by administering 6 μl drops to alternating nares every two minutes for 20 minutes (60 μl total delivered). (Thorne, et al., Neuroscience 127 (2), 481-496 (2004)). Intranasal treatment was done prior to induction of stroke. Saline was used as a negative control. Brains were harvested for immunohistochemistry or western blotting.
(In western blotting, separated proteins are transferred to a membrane and probed.)

Series [2] concerns rats subjected to tMCAo. Kind of series: Ischemic infarct volume (H&E) after intranasal Pen1-XBIR3 and tMCAo. It counts as in vivo, rat. Particulars: 24 hpr, n=3. As for the experimental part:
as §1

In series [3] the test system is rats subjected to tMCAo. Kind of series: Intranasal Pen1-XBIR3 prior to tMCAo in rats; immunohistochemistry counts of neurons and processes in the penumbra. It counts as in vivo, rat. As for the experimental part:
Brains were analyzed for expression of activated caspase-6, NF-L, MAP-2, and NeuN at 12 hpr and 24 hpr. […] Therefore, caspase-9 inhibition using this delivery technique reduced caspase-6 activity. […] (Coleman, M., Nat Rev Neurosci 6 (11), 889-898 (2005)). […] Unlike axon density, dendrite levels are unaffected at 12 and 24 hpr (FIG. 4D), which can indicate a slower time-course for dendritic degeneration or a different mechanism of degeneration.
Mouse & Rat Stroke Models. Caspase-6 null (C6^−/−) mice (Jackson Laboratories)^48,49 on C57/B16 background were bred with wild-type C57/B16 mice to generate C6^+/− heterozygotes, hets were bred to generate C6^−/− and wild-type littermates for studies. 2-3 month old male C6^−/− and wild-type littermate mice (23-30 g) as well as adult Wistar male rats 250-300 g (Taconic Laboratories) were subjected to transient middle cerebral artery occlusion (tMCAo) as previously published. (Connolly, et al., Neurosurgery 38 (3), 523-531; discussion 532 (1996); Komotar, et al., Nat Protoc 2 (10), 2345-2347 (2007)). Brains were harvested and processed for western blotting or immunohistochemistry as described below. For mouse neurofunctional analysis, a 28 point neurological functional exam was performed as previously described. (Clark, et al., Neurol Res 19 (6), 641-648 (1997)). Additionally, single mice were placed in a fresh cage at each time point (Pre-stroke, 24 hr reperfusion, 7 days reperfusion) short videos (3 min at each time point) were recorded of each mouse's representative spontaneous activity to illustrate motor deficits in the mouse stroke model.
as §1
Immunohistochemistry (IHC), Cell Process Quantification, and Statistical Analysis. Rats and mice were euthanized, perfused with heparin followed by fixation with 4% paraform-aldehyde. Sections were blocked for 1 hr with 10% normal goat serum/1% BSA, incubated with primary antibody overnight at 4° C., washed with PBS-Triton-X100 (0.1%), incubated with the species appropriate Alexa Fluor-conjugated secondary antibody (Invitrogen) for 2 hr at RT. Slides were also stained with Hoechst 33342 for 15 min at RT (1 μg/ml, Invitrogen) or with NeuroTrace fluorescent Nissl stain (1:300, Invitrogen) for 30 min to stain for nuclei. Human samples were additionally treated with Sudan Black (1% in 70% EtOH) for 5 min at RT and washed with 3 changes of PBS (3 min each). For detection of fluorescent staining, sections were imaged with an upright Nikon fluorescent microscope using a SPOT digital camera and with a Perkin-Elmer Spinning Disc Confocal Imaging System. Quantification of neurons and axons was accomplished using the Cell Counter plug-in for ImageJ (NIH). For quantification in the rat brain, 20x magnification images were acquired from the dorsal motor cortex and the […] somatosensory cortex forelimb region; both regions are contained are within the infarct penumbra (FIG. 1A). Single blind counts of processes or neurons were made in both regions of interest and then pooled for each individual animal. Three animals were used per cohort. For mouse brains, 20× magnification images were taken in the S1 somato-sensory cortex forelimb region and similar counts were made as described below. Counts were made for NF-L/MAP-2 positive processes and NeuN positive cell bodies. Comparisons between groups used the student's t test, p-value: 0.05.

“Pen1-XBIR3: BIR3 domain from XIAP, a specific caspase-9 inhibitor, disulfide-linked to Penetratin1 cell transduction peptide (SEQ ID NO: 10)”: the “presence of XBIR3 in brain slices (anterior to posterior)” value in series [1] is reported as “delivered to all slices of the brain”; in series [1] (listed as Pent-XBIR3), “throughout the rat CNS”. In addition, the ischemic infarct volume result with rats subjected to tMCAo [2] is on record as “reduces ischemic infarct volume”. The “MAP-2 positive processes (dendrites)” value in the series with rats subjected to tMCAo [3] (12 hpr, n=3) amounted to 162.0±19.22; with rats subjected to tMCAo [3] (24 hpr, n=3), 138.3±6.766. For the same substance, in the series on rats subjected to tMCAo [3] (12 hpr, n=3), the NF-L positive axons was 179.7±14.89. Besides, the NeuN positive cells in the series with rats subjected to tMCAo [3] (12 hpr, n=3) is recorded as 477.3±28.95; in the series on rats subjected to tMCAo [3] (24 hpr, n=3) it was 453.7±25.44; in the series with rats subjected to tMCAo [3] (24 hpr, n=3, listed as Pent-XBIR3) it was “significant protection against neuron loss”.
